Assay results as given in patent publication US20210355104A1, “ADENOSINE RECEPTOR BINDING COMPOUNDS” (Nikang Therapeuticsm Inc., priority 2018, published 2021).
Where “and” joins values, the source holds several entries; their conditions need not be identical. Identical values can stand only once.

Biological target: T1, Adenosine A2A receptor (Homo sapiens, UniProt P29274)
Assay: cAMP assay in 293A cells stably expressing the adenosine A2A receptor (CGS21680 stimulation, HTRF)
Assay type: cell-based
Parameters: expressed in transfected cells; host or cells: 293A cells (Invitrogen, Cat# R705-07) infected with A2A-expressing lentivirus (custom packaged by Biosettia), puromycin selected
Conditions: 293A cells stably expressing A2A receptor; 0.1% BSA; 1 uM CGS21680 stimulation; replicate values separated by /; read-out: cAMP (nM) 0.1% BSA, 1 uM CGS

T1 sequence (P29274 whole entry): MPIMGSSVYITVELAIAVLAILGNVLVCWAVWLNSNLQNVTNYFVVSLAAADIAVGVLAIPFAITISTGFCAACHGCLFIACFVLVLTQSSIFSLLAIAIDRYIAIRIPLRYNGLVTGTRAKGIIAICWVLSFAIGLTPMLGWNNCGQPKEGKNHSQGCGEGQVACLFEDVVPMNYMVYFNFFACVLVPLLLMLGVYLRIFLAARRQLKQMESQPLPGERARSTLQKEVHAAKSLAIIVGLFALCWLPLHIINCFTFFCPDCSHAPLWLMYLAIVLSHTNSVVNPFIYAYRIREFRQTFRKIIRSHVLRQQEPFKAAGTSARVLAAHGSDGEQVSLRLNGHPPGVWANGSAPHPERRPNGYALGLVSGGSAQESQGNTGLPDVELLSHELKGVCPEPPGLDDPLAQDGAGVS

Row | IC50 | Structure (SMILES)
1 | 3420 nM | Cc1cc(-c2c(OCc3cc(C(C)(C)O)cc(C(C)(C)O)n3)nc(N)nc2-c2ccc(F)cc2)cc(C(F)F)n1 [Example 421, 2,2′-(6-(((2-amino-5-(2-(difluoromethyl)-6-methylpyridin-4-yl)-6-(4-fluorophenyl)pyrimidin-4-yl)oxy)methyl)pyridine-2,4-diyl)bis(propan-2-ol)]
2 | 435 nM and 732 nM | Cc1cc(-c2c(OCc3nccc4c3cnn4C)nc(N)nc2-c2ccc(F)cc2)cc(C(F)F)n1 [Example 423, 5-(2-(difluoromethyl)-6-methylpyridin-4-yl)-4-(4-fluorophenyl)-6-((1-methyl-1H-pyrazolo[4,3-c]pyridin-4-yl)methoxy)pyrimidin-2-amine]
3 | 5930 nM and 9830 nM | Cc1cc(-c2c(OCc3cc(N4CCOCC4)cc(C(C)(C)O)n3)nc(N)nc2-c2ccc(F)cc2)cc(C(F)F)n1 [Example 424, 2-(6-(((2-amino-5-(2-(difluoromethyl)-6-methylpyridin-4-yl)-6-(4-fluorophenyl)pyrimidin-4-yl)oxy)methyl)-4-morpholinopyridin-2-yl)propan-2-ol]
4 | 7980 nM and 6190 nM | Cc1cc(-c2c(OCc3cc(C(C)(C)O)cc(-c4nnnn4C)n3)nc(N)nc2-c2ccc(F)cc2)cc(C(F)F)n1 [Example 426, 2-(2-(((2-amino-5-(2-(difluoromethyl)-6-methylpyridin-4-yl)-6-(4-fluorophenyl)pyrimidin-4-yl)oxy)methyl)-6-(1-methyl-1H-tetrazol-5-yl)pyridin-4-yl)propan-2-ol]
5 | 5150 nM and 6010 nM | Cc1cc(-c2c(OCc3cc(C(C)(C)O)cc(-c4nnn(C)n4)n3)nc(N)nc2-c2ccc(F)cc2)cc(C(F)F)n1 [Example 427, 2-(2-(((2-amino-5-(2-(difluoromethyl)-6-methylpyridin-4-yl)-6-(4-fluorophenyl)pyrimidin-4-yl)oxy)methyl)-6-(2-methyl-2H-tetrazol-5-yl)pyridin-4-yl)propan-2-ol]
6 | > 30000 nM | Cc1cc(-c2c(OCc3ccc(=O)n(C(C)(C)C(=O)O)n3)nc(N)nc2-c2ccc(F)cc2)cc(C(F)F)n1 [Example 428, 2-(3-(((2-amino-5-(2-(difluoromethyl)-6-methylpyridin-4-yl)-6-(4-fluorophenyl)pyrimidin-4-yl)oxy)methyl)-6-oxopyridazin-1(6H)-yl)-2-methylpropanoic acid]
7 | 2460 nM | Cc1cc(-c2c(OCc3nccc4nn(C)cc34)nc(N)nc2-c2ccc(F)cc2)cc(C(F)F)n1 [Example 430, 5-(2-(difluoromethyl)-6-methylpyridin-4-yl)-4-(4-fluorophenyl)-6-((2-methyl-2H-pyrazolo[4,3-c]pyridin-4-yl)methoxy)pyrimidin-2-amine]
8 | 1260 nM | Cc1cc(-c2c(OCc3cccc(C(O)(CCO)CCO)n3)nc(N)nc2-c2ccc(F)cc2)cc(C(F)F)n1 [Example 432, 3-(6-(((2-amino-5-(2-(difluoromethyl)-6-methylpyridin-4-yl)-6-(4-fluorophenyl)pyrimidin-4-yl)oxy)methyl)pyridin-2-yl)pentane-1,3,5-triol]
9 | 506 nM | Cc1cc(-c2c(OCc3cc(C#N)cc(C(C)(C)O)n3)nc(N)nc2-c2ccc(F)cc2)cc(C(F)F)n1 [Example 435, 2-(((2-amino-5-(2-(difluoromethyl)-6-methylpyridin-4-yl)-6-(4-fluorophenyl)pyrimidin-4-yl)oxy)methyl)-6-(2-hydroxypropan-2-yl)isonicotinonitrile]
10 | 894 nM and 530 nM | Cc1cc(-c2c(OCc3cccc(CN(CC(=O)N(C)C)CC(=O)N(C)C)n3)nc(N)nc2-c2ccc(F)cc2)cc(C(F)F)n1 [Example 436, 2,2′-(((6-(((2-amino-5-(2-(difluoromethyl)-6-methylpyridin-4-yl)-6-(4-fluorophenyl)pyrimidin-4-yl)oxy)methyl)pyridin-2-yl)methyl)azanediyl)bis(N, N-dimethylacetamide)]
11 | 3180 nM | Cc1cc(-c2c(OCc3nc(C(C)(C)O)ccc3C(C)(C)O)nc(N)nc2-c2ccc(F)cc2)cc(C(F)F)n1 [Example 438, 2,2-(6-(((2-amino-5-(2-(difluoromethyl)-6-methylpyridin-4-yl)-6-(4-fluorophenyl)pyrimidin-4-yl)oxy)methyl)pyridine-2,5-diyl)bis(propan-2-ol)]
12 | > 3000 nM | Cc1cc(-c2c(OCc3cc(-c4nn[nH]n4)cc(C(C)(C)O)n3)nc(N)nc2-c2ccc(F)cc2)cc(C(F)F)n1 [Example 441, 2-(6-(((2-amino-5-(2-(difluoromethyl)-6-methylpyridin-4-yl)-6-(4-fluorophenyl)pyrimidin-4-yl)oxy)methyl)-4-(2H-tetrazol-5-yl)pyridin-2-yl)propan-2-ol]
13 | 23200 nM | Cc1cc(-c2c(OCc3cc(-c4nnnn4C)cc(C(C)(C)O)n3)nc(N)nc2-c2ccc(F)cc2)cc(C(F)F)n1 [Example 443, 2-(6-(((2-amino-5-(2-(difluoromethyl)-6-methylpyridin-4-yl)-6-(4-fluorophenyl)pyrimidin-4-yl)oxy)methyl)-4-(1-methyl-1H-tetrazol-5-yl)pyridin-2-yl)propan-2-ol]

Biological target: T1, Adenosine A2A receptor
Assay: Adenosine A2A receptor competitive binding assay (Tag-lite HTRF)
Conditions: Tag-lite adenosine A2A receptor ligand binding, 2 h room temperature; values separated by / are repeat determinations
Description: Adenosine A2A Receptor Competitive Binding Assay
The Tag-lite adenosine A2A receptor ligand binding assay is a homogeneous alternative to radioligand binding assay and developed by Cisbio (Bedford, Mass.). We carried out this assay following Cisbio's instructions with minor modification. Pre-transfected, fluorescent donor-labelled cells (Cisbio Cat#: C1TT1A2A, 200 testes) was stored at −80° C. and thawed right before use. Cells were washed once with 5 ml TLB and gently resuspended in 2 ml TLB. 4 μl suspended cells was dispensed into each well of white low-volume 384-well plate (Greiner Bio-One). Serial dilutions of compounds were prepared in Tag-lite buffer (TLB, Cisbio Cat #: LABMED) to a DMSO concentration of 0.6%. After adding 4 μl of compound dilutions to each well, 4 μl60 nM Adenosine A2A receptor red antagonist fluorescent ligand (Cisbio Cat #: L0058RED) was dispensed to each well. The 384-well assay plate was centrifuged briefly and incubated at room temperature for 2 h. HTRF signals were measured using CIARIOstar plate reader (BMG Labtech).

Row | IC50 | Structure (SMILES)
14 | 433 nM | CCN(CC)C(=O)CCc1nc(N)nc(-c2ccccc2)c1-c1cc(C)nc(C(F)(F)F)c1 [Example 18, 3-(2-amino-5-(2-methyl-6-(trifluoromethyl)pyridin-4-yl)-6-phenylpyrimidin-4-yl)-N,N-diethylpropanamide]
15 | 52 nM | Cc1cc(-c2c(CO)nc(N)nc2-c2ccccc2)cc(C(F)(F)F)n1 [Example 19, (2-amino-5-(2-methyl-6-(trifluoromethyl)pyridin-4-yl)-6-phenylpyrimidin-4-yl)methanol]
16 | 26.6 nM | CC(=O)N1CCN(c2ccc(CCOc3nc(N)nc(-c4ccccc4)c3-c3cc(C)nc(C(F)(F)F)c3)cc2)CC1 [Example 20, 1-(4-(4-(2-((2-amino-5-(2-methyl-6-(trifluoromethyl)pyridin-4-yl)-6-phenylpyrimidin-4-yl)oxy)ethyl)phenyl)piperazin-1-yl)ethan-1-one]
17 | 111 nM | CCN(CC)C(=O)OCc1nc(N)nc(-c2ccccc2)c1-c1cc(C)nc(C(F)(F)F)c1 [Example 21, (2-amino-5-(2-methyl-6-(trifluoromethyl)pyridin-4-yl)-6-phenylpyrimidin-4-yl)methyl diethylcarbamate]
18 | 1780 nM | CNCc1nc(N)nc(-c2ccccc2)c1-c1cc(C)nc(C(F)(F)F)c1 [Example 22, 5-(2-methyl-6-(trifluoromethyl)pyridin-4-yl)-4-((methylamino)methyl)-6-phenylpyrimidin-2-amine]
19 | 1780 nM | Cc1cc(-c2c(CN(C)C)nc(N)nc2-c2ccccc2)cc(C(F)(F)F)n1 [Example 23, 4-((dimethylamino)methyl)-5-(2-methyl-6-(trifluoromethyl)pyridin-4-yl)-6-phenylpyrimidin-2-amine]
20 | 118 nM | Cc1cc(-c2c(CNCC(F)(F)F)nc(N)nc2-c2ccccc2)cc(C(F)(F)F)n1 [Example 24, 5-(2-methyl-6-(trifluoromethyl)pyridin-4-yl)-4-phenyl-6-(((2,2,2-trifluoroethyl)amino)methyl)pyrimidin-2-amine]
21 | 32 nM | CC(=O)N1CCC(Oc2ccc(CCOc3nc(N)nc(-c4ccccc4)c3-c3cc(C)nc(C(F)(F)F)c3)cc2)C1 (centres unmarked) [Example 25, 1-(3-(4-(2-((2-amino-5-(2-methyl-6-(trifluoromethyl)pyridin-4-yl)-6-phenylpyrimidin-4-yl)oxy)ethyl)phenoxy)pyrrolidin-1-yl)ethan-1-one]
22 | 43 nM and 26.8 nM | Cc1cc(-c2c(OCCc3ccc(N4CCC(=O)CC4)cc3)nc(N)nc2-c2ccccc2)cc(C(F)(F)F)n1 [Example 26, 1-(4-(2-((2-amino-5-(2-methyl-6-(trifluoromethyl)pyridin-4-yl)-6-phenylpyrimidin-4-yl)oxy)ethyl)phenyl)piperidin-4-one]
23 | 15.9 nM | CCN(CC)C(=O)COc1nc(N)nc(-c2ccc(F)cc2)c1-c1cc(C)nc(C(F)(F)F)c1 [Example 27, 2-[[2-amino-6-(4-fluorophenyl)-5-[2-methyl-6-(trifluoromethyl)pyridin-4-yl]pyrimidin-4-yl]oxy]-N,N-diethylacetamide]
24 | 9.95 nM | CCN(CC)C(=O)CNc1nc(N)nc(-c2ccccc2)c1-c1cc(C)nc(C(F)(F)F)c1 [Example 30, 2-((2-amino-5-(2-methyl-6-(trifluoromethyl)pyridin-4-yl)-6-phenylpyrimidin-4-yl)amino)-N,N-diethylacetamide]
25 | 8.35 nM | CC(=O)N1CCN(c2ccc(CCOc3nc(N)nc(-c4ccc(F)cc4)c3-c3cc(C)nc(C(F)F)c3)cc2)CC1 [Example 31, 1-(4-[4-[2-([2-amino-5-[2-(difluoromethyl)-6-methylpyridin-4-yl]-6-(4-fluorophenyl)pyrimidin-4-yl]oxy)ethyl]phenyl]piperazin-1-yl)ethan-1-one]
26 | 66.5 nM | Cc1cc(-c2c(OC3CCOCC3)nc(N)nc2-c2ccc(F)cc2)cc(C(F)F)n1 [Example 33, 5-(2-(difluoromethyl)-6-methylpyridin-4-yl)-4-(4-fluorophenyl)-6-((tetrahydro-2H-pyran-4-yl)oxy)pyrimidin-2-amine]
